1 cell line from the supplement of paper PMC10307832 can be followed below.

Experiment in all cases: relative viability (nuclei count vs DMSO), 5 days (fraction); higher = more cells survive
Compound in test [1]: CC1CC(=O)N(C2=CN=C(N=C2N1C3CCCC3)NC4=C(C=C(C=C4)C(=O)NC5CCN(CC5)C)OC)C [NPK76-II-72-1] + CS(=O)(=O)N1CCN(Cc2cc3nc(-c4cccc5[nH]ncc45)nc(N4CCOCC4)c3s2)CC1 [Pictilisib] (partner 1 µM)
The method, boiled down: (§1)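 Each reported value is a median over duplicate plates. It expresses relative viability: treated-well nuclei count divided by vehicle-well nuclei count. Lung cancer cell lines in 1536-well plates were dosed by pin tool a day after seeding, alone with one drug or with a fixed anchor-drug dose plus five library-drug doses (not always all listed) in √10 steps, and nuclei were counted after 5 days.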

Compound in the test “BI-2536 + Foretinib”: CC[C@@H]1C(=O)N(C)c2cnc(Nc3ccc(C(=O)NC4CCN(C)CC4)cc3OC)nc2N1C1CCCC1 [BI-2536] + COc1cc2c(Oc3ccc(NC(=O)C4(C(=O)Nc5ccc(F)cc5)CC4)cc3F)ccnc2cc1OCCCN1CCOCC1 [Foretinib] (partner 0.25 µM)
The method, boiled down: as §1

Compound in the test “BI-2536 + Lapatinib”: CC[C@@H]1C(=O)N(C)c2cnc(Nc3ccc(C(=O)NC4CCN(C)CC4)cc3OC)nc2N1C1CCCC1 [BI-2536] + CS(=O)(=O)CCNCc1ccc(-c2ccc3ncnc(Nc4ccc(OCc5cccc(F)c5)c(Cl)c4)c3c2)o1 [Lapatinib] (partner 2 µM)
In outline:
as §1

Compound in the test “BI-2536 + Vorinostat”: CC[C@@H]1C(=O)N(C)c2cnc(Nc3ccc(C(=O)NC4CCN(C)CC4)cc3OC)nc2N1C1CCCC1 [BI-2536] + O=C(CCCCCCC(=O)Nc1ccccc1)NO [Vorinostat] (partner 1 µM)
The method, boiled down: as §1

As to UMC-11, the relative viability was 0.75 in test [1] (first compound 0.01 µM); 0.707 in test [1] (first compound 0.03162 µM); 0.881 in test [1] (first compound 0.1 µM); 0.806 in test [1] (first compound 0.3162 µM); 0.778 in test [1] (first compound 1 µM); 0.927 with BI-2536 + Foretinib (first compound 0.01 µM). Besides, the relative viability with BI-2536 + Foretinib (first compound 0.03162 µM) was 0.661; with BI-2536 + Foretinib (first compound 0.1 µM), 0.174; with BI-2536 + Foretinib (first compound 0.3162 µM) it was 0.19; with BI-2536 + Foretinib (first compound 1 µM), 0.191; with BI-2536 + Lapatinib (first compound 0.01 µM), 1.02; with BI-2536 + Lapatinib (first compound 0.03162 µM), 0.765. Further, the relative viability is 0.132 with BI-2536 + Lapatinib (first compound 0.1 µM); 0.17 in the test with BI-2536 + Lapatinib (first compound 0.3162 µM); 0.18 with BI-2536 + Lapatinib (first compound 1 µM); 0.343 with BI-2536 + Vorinostat (first compound 0.01 µM); 0.315 with BI-2536 + Vorinostat (first compound 0.03162 µM); 0.187 with BI-2536 + Vorinostat (first compound 0.1 µM). For the same cell line, the results for the relative viability with BI-2536 + Vorinostat (first compound 0.3162 µM) and with BI-2536 + Vorinostat (first compound 1 µM) were 0.18 and 0.145, respectively.
